How the values were obtained:
NIH/3T3 cells = test: Lentiviral transduction enhancement in NIH/3T3 cells (GFP+ cells and living cells by flow cytometry); type: cell-based, murine; conditions: micellar peptide at 1 µM; MOI = 1; GFP+ cells 72 h after vector exposure; compared with other TEs (Figure 1)
Protocol: (§1) To carry out the transduction enhancement assays, 3000 cells (HEK-293T or NIH/3T3, both purchased at the ATCC) were seeded in 100 µL of culture medium (consisting of Dulbecco's Modified Eagle Medium (high glucose) (DMEM, Gibco™), supplemented with 10% fetal bovine serum (FBS), 1% L-glutamine and 1% penicillin/streptomycin (P/S) (both from Cultek S.L.U.), per well, in culture-treated flat-bottomed 96-well plates, and incubated for 24 h at 37° with 5% CO2 and 100% relative humidity.
The vector was diluted in complete medium, and the appropriate amounts were added to each well at the chosen MOI into a final volume of 200 µL per well, in the absence or presence of the chosen TE (peptides, LB, VF-1, PS, RN, PGE2) at different concentrations and following the manufacturer's recommendations. The culture medium was changed 24 h after transduction and the cells were incubated for 48 h more until the plate was analyzed 3 days post-transduction by flow cytometry. […]
(§2) Transduction efficiency was analyzed using an LSR Fortessa cell analyzer (Becton, Dickinson, New Jersey, USA), after 3, 7 or 14 days post-transduction (depending on the target cell type). […]
To analyze the transduction efficacy and cytotoxicity of the compounds used, different gates of analysis were defined. […] The percentage of live transduced cells was obtained using eGFP fluorescence (FL1). […]

CD34^+ cells = test: Lentiviral transduction enhancement in CD34+ hematopoietic cells (flow cytometry); type: cell-based, human; conditions: peptides at 3 µM, LB 5 mg/mL; MOI = 1; days 3, 7 and 14 after transduction; only K18-8R and LentiBoost statistically significant vs basal transduction (Figure 4)
Protocol: • 1. The CD34^+ cells were isolated from apheresis products from healthy donors and cryopreserved in liquid nitrogen until use. Cells were then thawed, counted with trypan blue, and seeded in culture-treated 96-well flat-bottom plates, about 50.000 cells per well in 100 µL of complete StemSpan™ SFEM Hematopoietic Cell Culture Medium (SFEM medium) (Stem Cell Technologies™, Vancouver, Canada), and incubated at 37°C, 5% CO2 and 100% relative humidity. The complete medium was supplemented with recombinant human stem cell factor (rhSCF), recombinant human flt3 ligand (rhFlt3-L) and recombinant human thrombopoietin (rhTpo) (all from EuroBioScience, Friesoythe, Germany). • 2. After 24 h in culture, the cells were transduced as follow: Previously, the required volume of lentiviral vector was calculated in accordance with the vector titer, the CD34^+ target cell number and the desired MOI. Prior to its use, the vector was diluted in complete SFEM medium. • 3. […] Finally, at 3, 7 and 14 days post-transduction, the cells were analyzed by flow cytometry and the plates were stored at -80° for future analyses.
as §2

Antimicrobial activity = type: cell-based; conditions: concentrations higher than 10-15 µM; dose-dependent
NK cells = test: Lentiviral transduction enhancement in primary NK cells (flow cytometry); type: cell-based, human; conditions: MOI = 5; for fold changes: fold change relative to basal transduction, 1.5 µM
Protocol: • 1. Total blood samples were collected and processed in less than 4 h. After obtaining the peripheral blood mononuclear cells (PBMCs) by density gradient centrifugation (Ficoll), NK cells (following the instructions of the Miltenyi Biotec isolation kit) from human they were seeded in a 24-well plate [10^6 cells per well in 1 mL of complete medium (NK MACS supplemented with 5% AB serum (Tebu-Bio, Le Perray, France), recombinant human IL-2 (rhIL-2) and recombinant human IL-15 (rhIL-15), both from Miltenyi Biotec)], and incubated at 37°C, 5% CO2, and 100% relative humidity. • 2. After 48 h in culture, cells were counted, and about 40,000 cells were seeded in 100 µL of complete medium (per well) in culture-treated 96-well flat-bottom plate. The transduction process was performed as follows: • 3. Calculate the required volume of lentiviral vector for a known number of NK cells and desired MOI, and the vector diluted in complete medium. Simultaneously, prepare all the enhancers to be used in the assay (micellar peptides, LB, PS, VF-1, etc.) at the concentrations recommended by the manufacturers. […] At days 3, 7 and 14 post-transduction, the cells were analyzed by flow cytometry.
as §2
To analyze the transduction efficacy and cytotoxicity of the compounds used, different gates of analysis were defined. […] The percentage of live transduced cells was obtained using eGFP fluorescence (FL1). As an additional parameter, the Mean Fluorescence Intensity (MFI) of the transduced cells was measured. The MFI is the mean of all fluorescence intensities of individual cells (or events) in a desired population. In our case, the MFI values obtained represented the mean fluorescence level of eGFP in the transduced cells (gate 4). All data were obtained and analyzed using FACSDiva software v6.2 and FlowJo v10 software (both from BD Biosciences).

HEK-293T cells = test: Lentiviral transduction enhancement in HEK-293T cells (GFP+ cells by flow cytometry); type: cell-based, human; conditions: for transduction enhancing activity: K18-derived peptides at 1 µM compared with commercial TE, MOI = 1 (Figure 3)
Protocol: as §1
The vector was diluted in complete medium, and the appropriate amounts were added to each well at the chosen MOI into a final volume of 200 µL per well, in the absence or presence of the chosen TE (peptides, LB, VF-1, PS, RN, PGE2) at different concentrations and following the manufacturer's recommendations. The culture medium was changed 24 h after transduction and the cells were incubated for 48 h more until the plate was analyzed 3 days post-transduction by flow cytometry.
All experiments included a non-transduced control (cells only) without vector exposure, and a control with vectors but without TE (basal transduction). In all assays, a minimum of three replicates (technical replicates) were performed per experimental condition, and were repeated a minimum of three times (experimental replicates) for statistical analysis.
Transduction efficiency was analyzed using an LSR Fortessa cell analyzer (Becton, Dickinson, New Jersey, USA), after 3, 7 or 14 days post-transduction (depending on the target cell type). First, cells were transferred using a multichannel pipette to a U-bottom 96-well plate. Live and dead cells were dis-criminated using 1 µg/mL 7-amino-actinomycin D (7-AAD).
To analyze the transduction efficacy and cytotoxicity of the compounds used, different gates of analysis were defined. Samples of transduced cells (labeled and unlabeled with PI or 7-AAD), with a minimum of 10.000 events in the relevant gate, were acquired. Further, appropriate thresholds were established to define the cell populations. Four final gates were created and applied sequentially: • Gate 1. Plotting forward scatter high or FSC-H (Forward scatter height) versus forward scatter area or FSC-A (Forward scatter area). Here single events were gated to eliminate doublets. • Gate 2. Plotting the Side scatter area (SSC-A) against the Forward scatter area (FSC-A). This gate was used to eliminate cellular debris and atypical and undesired events, taking into account their morphology and complexity. • Gate 3. Thanks to the labeling of the cells with PI or 7-AAD it was possible to calculate the percentage of dead cells and eliminate them from the study. Only live cells were considered for the subsequent analysis gate. • Gate 4. The percentage of live transduced cells was obtained using eGFP fluorescence (FL1). As an additional parameter, the Mean Fluorescence Intensity (MFI) of the transduced cells was measured. The MFI is the mean of all fluorescence intensities of individual cells (or events) in a desired population. In our case, the MFI values obtained represented the mean fluorescence level of eGFP in the transduced cells (gate 4). All data were obtained and analyzed using FACSDiva software v6.2 and FlowJo v10 software (both from BD Biosciences).

[1] = concentrations higher than 10-15 µM; dose-dependent
Protocol: Studies with the fluorochrome Yo-Pro-1 were performed at the laboratory of Dr. Pablo Pelegrin, at the University of Murcia.

CD4^+ T cells = test: Lentiviral (anti-CD19 CAR) transduction enhancement in CD4+ T cells (flow cytometry); type: cell-based, human; conditions: 72 h after transduction; differences between the four compounds not statistically significant (Figure 6)
Protocol: • 1. After isolation and activation of the CD4^+ T cells, a suspension of 10^6 cells/mL was prepared and 100 µL were added per well to a 96-well flat-bottom plate and incubated at 37°C, 5% CO2, and 100% relative humidity. After 24 h in culture, the vector was diluted to the desired concentration and mixed with the different TEs (peptides, LB, VF-1, PS, PGE2), and 50 µL per well of the vector-TEs solution was added. The A3B1:CD8:4-1BB:CD3ζ (also named ARI001-CodonOptimized3 vector), a third generation lentiviral vector encoding an anti-human CD19 CAR, was used for this assay. • 2. After 72 h post-transduction, samples were collected and stained for flow cytometry analysis: First, the entire plate contents were transferred to a pre-labeled 96-well roundbottom plate. Two washes were performed with 1X PBS, adding 100 µL per well and centrifuging the plate for 2' at 2000 rpm. In the last wash, the supernatant was discarded, and 100 µL of a working solution of eFluor™ 450 - Fixable Viability Dye Live/Dead (eBioscience™) was added and incubated for 30' at RT. • 3. Two washes were performed with 200 µL of FACS buffer (PBS 1X + 3% FBS). […] Finally, transduction efficiency was analyzed by flow cytometry to determine the percentage of CAR-positive T cells.

With “LLNIKVKLEAEIRRRRRRRR (poloxamer F-127 micelles) [K18-8R, first 12 amino acids of K18 plus an 8R tail; conjugated to poloxamer F-127 polymeric micelles]” the transduction enhancing activity (NIH/3T3 cells) was “highest transduction enhancing activity”, the “enhancing efficacy (transduction efficiencies by flow cytometry)” value (CD34^+ cells) was “highest enhancing efficacy” and the antimicrobial activity (Antimicrobial activity) was “predominated”. The fold changes (NK cells; day 3) was 2.2, the fold changes (NK cells; day 14) was 3.5 and the enhancing activity (NK cells; peptides at 1.5 µM, compared with scrambled control, micelle alone and LB (Figure 7)) was “highest enhancing activity”. The “transduction enhancing activity at higher concentrations” value (HEK-293T cells; 5 µM or more, MOI 1 and 5, perhaps due to toxicity (Figure 2)) was “decreased”, the transduction enhancing activity (HEK-293T cells) was “highest activity” and the transduction enhancement (HEK-293T cells; peptide at 1 µM, MOI 1 and 5, experiment made only once (Figure 2)) was “highest transduction enhancement”. For the same sequence, the cytotoxic activity [1] was “predominated”, the hemolytic activity [1] was “predominated” and the transduction efficiency (CD4^+ T cells) was “highest transduction efficiency”.
For “LLNIKVKLEAEIATYRRLLE (poloxamer F-127 micelles) [K18, conjugated to poloxamer F-127 polymeric micelles]”, the transduction enhancing activity (HEK-293T cells) was “highest activity”.
For “LLNKEIKIEVALARRRRRRRR (polymeric micelles) [Sc-K18-8R, conjugated to polymeric micelles, reference compound]”, the “enhancing efficacy (transduction efficiencies by flow cytometry)” value (CD34^+ cells) was “significant enhancing activity”.
With LLNVKMALDIEIRRRRRRRR [DIF-P-8R] the enhancing activity (HEK-293T cells; several concentrations, MOI 1 and 5, experiment made only once (Figure 2)) was “enhancing activity, that was higher at 5-15 µM than at 1 µM”.

Source: patent EP4656207A1, “IN VITRO METHOD FOR T[…] TARGET CELL” (Fundació Hospital Universitari Vall Hebron - Institut de …, priority 2024, dated 2025)
